The source of these data is ChEMBL document CHEMBL4610043, “Design, synthesis and identification of novel, orally bioavailable non-covalent Nrf2 activators” (Bioorg Med Chem Lett, 2020).

Data set [1] can be described thus: AUC in rat at 1 mg/kg, iv. Format: ADME, organism-based. To be noted: in vivo.
Data set [2] can be described thus: Cmax in C57BL/6 mouse at 10 mg/kg, po. Format: ADME, organism-based. Also on record: dose 10 mg/kg, route oral. To be noted: in vivo.
Data set [3] can be described thus: fCmax In C57BL/6 mouse at 10 mg/kg, po. Format: ADME, organism-based. The following applies: in vivo.
Data set [4] is described as follows: Half life in rat at 1 mg/kg, iv. Format: ADME, organism-based. The following applies: in vivo.
Data set [5] in a line: Oral bioavailability in rat at 5 mg/kg. Format: ADME, organism-based. The following applies: in vivo.
A short description of data set [6]: Clearance in rat at 1 mg/kg, iv. Format: ADME, organism-based. The following applies: in vivo.
Data set [7] can be described thus: Protein binding in mouse brain assessed as unbound fraction. Format: ADME, tissue-based.
Data set [8] in a line: Cmax in rat at 5 mg/kg, po. Format: ADME, organism-based. Details: dose 5 mg/kg, route oral. To be noted: in vivo.
Data set [9] can be described thus: Protein binding in mouse plasma assessed as unbound fraction at 2 uM by rapid equilibrium dialysis method. Format: ADME, cell-free. In general terms: In equilibrium dialysis only unbound substance equilibrates across the membrane.
Data set [10] is described as follows: Tmax in rat at 5 mg/kg, po. Format: ADME, organism-based. To be noted: in vivo.
Data set [11] can be described thus: Unbound brain to plasma concentration ratio in mouse. Format: ADME. To be noted: brain and plasma, read-out: K(p,uu,brain).
Data set [12] can be described thus: Aqueous solubility of compound at pH 6.8 by shake flask method. Format: physicochemical. To be noted: buffer.
The nature of data set [13]: Protein binding in human plasma assessed as unbound fraction at 2 uM by rapid equilibrium dialysis method. Format: ADME, cell-free.
A short description of data set [14]: Volume of distribution at steady state in rat at 1 mg/kg, iv. Format: ADME, organism-based. To be noted: in vivo, read-out: Vdss.
Data set [15] in a line: Distribution coefficient, log D of compound at pH 7.4 by shake flask method. Format: physicochemical. The following applies: octanol/water.
The nature of data set [16]: Protein binding in rat plasma assessed as unbound fraction at 2 uM by rapid equilibrium dialysis method. Format: ADME, cell-free.
Data set [17] in a line: AUC in rat at 5 mg/kg, po. Format: ADME, organism-based. To be noted: in vivo.
Data set [18] in a line: Efflux ratio of apparent permeability in MDCK-MDR1 cells. To be noted: dog. Format: ADME, cell-based, Canis lupus familiaris.

Converted amounts (≈) assume the structure as drawn.

Take `CCn1nnc2c(C)c([C@@H](CC(=O)O)c3ccc4c(c3)CN(C(=O)c3c(C)c(C)cc(C)c3C)CC4)ccc21`: the values for the AUC in data set [1] and in data set [17] were 2510 ng·h/mL and 2720 ng·h/mL, respectively. Moreover, the Cmax (commonly the peak of the concentration-time curve) in data set [2] came out at 6.7 µM; in [8], 958 ng/mL. In [3], this molecule came in with a fCmax of 33 nM. In addition, the half-life – broadly, how long it takes for the measured level to halve – in [4] was 3.77 h. In addition, the bioavailability (commonly dose-corrected exposure relative to a reference, in per cent) in [5] came out at 20%. Moreover, in data set [6], the clearance (in general, a measure of how efficiently the substance is removed, as volume per time) came out at 6.16 mL/min/kg. Besides, the fraction unbound (as a rule, the share of the substance not bound to proteins or other matrix) in data set [7] is 0.0211. Further, the fraction unbound at 2 µM in data set [9] was 0.00505; in [13] it was 0.00708; in data set [16] it was 0.00568. Besides, the Tmax – broadly, the time from dosing to the highest level – in [10] was 0.92 h. In addition, the Kp uu in [11] is 0.04. Also, the solubility (thermodynamic) (as a rule, the concentration in solution at equilibrium with solid) in data set [12] was 29.5 µg/mL (≈ 56.2 µM). Besides, the Vd in data set [14] is 0.707 L/kg. In data set [15], the pH-dependent lipophilicity (logD) (in general, lipophilicity at a set pH, counting ionised and neutral species) turned out to be 1.39.
For `CCn1nnc2c(C)c([C@H](c3ccc4c(c3)CN(C(=O)c3c(C)c(C)cc(C)c3C)CC4)C(C)(C)C(=O)O)ccc21`, the efflux ratio (in general, the permeability from basolateral to apical divided by that in the opposite direction, in the common usage) in data set [18] is 104.
